According to patent US20260325685A1, “Radiopharmaceutical Compositions Targeting Carbonic Anhydrase IX and Uses Thereof” (RayzeBio, Inc., priority 2023, published 2026):
Read-outs that look alike come from different tables or passages of the source.

Columns and labels:
[1] = molecular target: T1, human CA-IX (Homo sapiens, UniProt Q16790); assay: Surface Plasmon Resonance (SPR) binding kinetics to recombinant human CA-IX (Biacore 8K, single-cycle kinetics, 1:1 binding model)
T1 construct: purchased Acro CA9-H82E3
Method in brief: (§1)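 Kinetics are measured at 25° C against streptavidin-captured CA-IX or CA-XII (1200-1800 RU) in PBS-P+ buffer, pH 7.4, containing 1% DMSO. Nine analyte concentrations span 100-0.39 nM, with 1200 s dissociation.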

[2] = molecular target: T2, human CA-XII (Homo sapiens, UniProt O43570); assay: Surface Plasmon Resonance (SPR) binding kinetics to recombinant human CA-XII (Biacore 8K, single-cycle kinetics, 1:1 binding model)
T2 construct: purchased Creative BioMart CA12-261H
Method in brief: as §1

[3] = Chelated Metal: Lu-175; SPR, 25° C., pH 7.4; read-out: CAIX KD
[4] = Chelated Metal: Lu-175, 25° C., pH 7.4, read-out: CAXII KD
[5] = read-out: CAIX KD; Chelated Metal: Lu-175; SPR, 25° C., pH 7.4
[6] = read-out: CAXII KD, Chelated Metal: Lu-175, 25° C., pH 7.4

T2 sequence (O43570 25-354): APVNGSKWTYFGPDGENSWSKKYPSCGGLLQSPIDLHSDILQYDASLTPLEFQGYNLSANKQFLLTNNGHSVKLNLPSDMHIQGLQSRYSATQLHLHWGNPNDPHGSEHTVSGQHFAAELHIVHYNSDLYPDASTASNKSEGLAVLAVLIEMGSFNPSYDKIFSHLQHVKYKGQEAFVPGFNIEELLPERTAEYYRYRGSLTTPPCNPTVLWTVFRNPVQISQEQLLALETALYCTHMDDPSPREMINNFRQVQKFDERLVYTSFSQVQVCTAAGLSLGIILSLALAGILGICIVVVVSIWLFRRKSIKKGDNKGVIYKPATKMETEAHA

Row | SMILES | Kd [1, 3] | Kd [2, 4] | other results
1 | CC(CCC(=O)N[C@@H](CC(=O)N[C@@H](CC(=O)N1CCN(C(=O)CN2CCN(CC(=O)O)CCN(CC(=O)O)CCN(CC(=O)O)CC2)C[C@H]1C(=O)NCCn1cc(C23CCC(C(=O)Nc4nnc(S(N)(=O)=O)s4)(C2)C3)nn1)C(=O)O)C(=O)O)(c1ccc(O)cc1)c1ccc(O)cc1.[Lu+3] [Compound 107.5] | < 1 nM | < 1 nM | –
2 | CC(CCC(=O)N[C@@H](CC(=O)N[C@@H](CC(=O)N[C@@H](CCCCN1CCN(c2ccc(C(=O)Nc3nnc(S(N)(=O)=O)s3)cc2)CC1)C(=O)NCCOCCOCCNC(=O)CN1CCN(CC(=O)O)CCN(CC(=O)O)CCN(CC(=O)O)CC1)C(=O)O)C(=O)O)(c1ccc(O)cc1)c1ccc(O)cc1.[Lu+3] [Compound 121.1] | 1 to 2.5 nM | > 10 nM | –
3 | NS(=O)(=O)c1nnc(NC(=O)C23CC(c4cn(CCNC(=O)[C@H]5CNCCN5C(=O)[C@H](CCCCNC(=O)CN5CCN(CC(=O)O)CCN(CC(=O)O)CCN(CC(=O)O)CC5)NC(=O)CC[C@H](NC(=O)CCC5CCCCC5)C(=O)O)nn4)(C2)C3)s1.[Lu+3] [Compound 118] | – | – | Kd [1, 5]: 1 to 2.5 nM; Kd [2, 6]: 2.5 to 10 nM
4 | NS(=O)(=O)c1nnc(NC(=O)C23CC(c4cn(CCNC(=O)[C@@H]5CN(C(=O)CN6CCN(CC(=O)O)CCN(CC(=O)O)CCN(CC(=O)O)CC6)CCN5C(=O)CNC(=O)C5(C(=O)O)CCN(C(=O)CCCc6n[nH]c7ccccc67)CC5)nn4)(C2)C3)s1.[Lu+3] [Compound 112.5] | 2.5 to 10 nM | > 10 nM | –
5 | CC(CCCC(=O)N1CCC(C(N)=O)(C(=O)NCC(=O)N2CCN(C(=O)CN3CCN(C(=O)CN4CCN(CC(=O)O)CCN(CC(=O)O)CCN(CC(=O)O)CC4)CC3)C[C@@H]2C(=O)NCCn2cc(C34CC(C(=O)Nc5nnc(S(N)(=O)=O)s5)(C3)C4)nn2)CC1)(c1ccc(O)cc1)c1ccc(O)cc1.[Lu+3] [Compound 129.3] | < 1 nM | > 10 nM | –
6 | NS(=O)(=O)c1nnc(NC(=O)C23CC(c4cn(CCNC(=O)[C@@H]5CN(C(=O)CN6CCN(CC(=O)O)CCN(CC(=O)O)CCN(CC(=O)O)CC6)CCN5C(=O)C[C@H](NC(=O)C[C@H](NC(=O)c5n[nH]c6ccc(F)cc56)C(=O)O)C(=O)O)nn4)(C2)C3)s1.[Lu+3] [Compound 109.15] | < 1 nM | 2.5 to 10 nM | –
7 | CC(C)(C)c1ccc(C(=O)N[C@@H](CC(=O)N[C@@H](CC(=O)N2CCN(C(=O)CN3CCN(CC(=O)O)CCN(CC(=O)O)CCN(CC(=O)O)CC3)C[C@H]2C(=O)NCCn2cc(C34CC(C(=O)Nc5nnc(S(N)(=O)=O)s5)(C3)C4)nn2)C(=O)O)C(=O)O)cc1.[Lu+3] [Compound 109.26] | 1 to 2.5 nM | 2.5 to 10 nM | –
8 | CC(CCC(=O)N1CCC(C(=O)O)(C(=O)NCC(=O)N[C@@H](CCCCn2cc(CCCC(=O)Nc3nnc(S(N)(=O)=O)s3)nn2)C(=O)NCCOCCOCCNC(=O)CN2CCN(CC(=O)O)CCN(CC(=O)O)CCN(CC(=O)O)CC2)CC1)(c1ccc(O)cc1)c1ccc(O)cc1.[Lu+3] [Compound 102] | – | – | Kd [1, 5]: 1 to 2.5 nM; Kd [2, 6]: > 10 nM
9 | CC(CCCC(=O)N1CCC(C(N)=O)(C(=O)NCC(=O)N2CCN(C(=O)CCC(C(=O)O)N3CCN(CC(=O)O)CCN(CC(=O)O)CC3)C[C@@H]2C(=O)NCCn2cc(C34CC(C(=O)Nc5nnc(S(N)(=O)=O)s5)(C3)C4)nn2)CC1)(c1ccc(O)cc1)c1ccc(O)cc1.[Cu+2] (some centres unmarked) [Compound 127.3] | – | – | Kd ([1]; Chelated Metal: Cu (cold); SPR, 25° C., pH 7.4; read-out: CAIX KD): < 1 nM; Kd ([2]; Chelated Metal: Cu (cold), 25° C., pH 7.4, read-out: CAXII KD): > 10 nM
10 | CC(CCCC(=O)N1CCC(C(=O)O)(C(=O)NCC(=O)N[C@@H](CCCCn2cc(C34CCC(C(=O)Nc5nnc(S(N)(=O)=O)s5)(CC3)CC4)nn2)C(=O)NCCOCCOCCNC(=O)CN2CCN(CC(=O)O)CCN(CC(=O)O)CCN(CC(=O)O)CC2)CC1)(c1ccc(O)cc1)c1ccc(O)cc1.[Lu+3] [Compound 102.5] | < 1 nM | 2.5 to 10 nM | –
11 | CC(CCC(=O)N[C@@H](CC(=O)N[C@@H](CC(=O)N1CCN(C(=O)CCOCCOCCOCCOCCN(CCOCCOCCOCCOCCC(=O)N2CCN(C(=O)C[C@H](NC(=O)C[C@H](NC(=O)CCC(C)(c3ccc(O)cc3)c3ccc(O)cc3)C(=O)O)C(=O)O)[C@H](C(=O)NCCn3cc(C45CC(C(=O)Nc6nnc(S(N)(=O)=O)s6)(C4)C5)nn3)C2)C(=O)CN2CCN(CC(=O)O)CCN(CC(=O)O)CCN(CC(=O)O)CC2)C[C@H]1C(=O)NCCn1cc(C23CC(C(=O)Nc4nnc(S(N)(=O)=O)s4)(C2)C3)nn1)C(=O)O)C(=O)O)(c1ccc(O)cc1)c1ccc(O)cc1 [Compound 131.1] | – | – | Kd ([1]; Chelated Metal: None; SPR, 25° C., pH 7.4; read-out: CAIX KD): < 1 nM; Ratio (CAXII/CAIX) ([1]; KD ratio CAXII/CAIX; Chelated Metal: None): * (1 < * < 5); Kd ([2]; Chelated Metal: None, 25° C., pH 7.4, read-out: CAXII KD): < 1 nM
12 | NS(=O)(=O)c1nnc(NC(=O)C23CC(c4cn(C[C@H]5CN(C(=O)CN6CCN(CC(=O)O)CCN(CC(=O)O)CCN(CC(=O)O)CC6)CCN5C(=O)C[C@H](NC(=O)[C@@H]5COCCN5C(=O)Cc5n[nH]c6ccccc56)C(=O)O)nn4)(C2)C3)s1.[Lu+3] [Compound 114.1] | 1 to 2.5 nM | > 10 nM | –
13 | CC(CCCC(=O)N1CCC(C(N)=O)(C(=O)NCC(=O)N2CCN(C(=O)CCOCCOCCNC(=O)CN3CCN(CC(=O)O)CCN(CC(=O)O)CCN(CC(=O)O)CC3)C[C@@H]2C(=O)NCCn2cc(C34CC(C(=O)Nc5nnc(S(N)(=O)=O)s5)(C3)C4)nn2)CC1)(c1ccc(O)cc1)c1ccc(O)cc1.[Lu+3] [Compound 129.2] | < 1 nM | > 10 nM | –
14 | CC(CCCC(=O)N1CCC(C(N)=O)(C(=O)NCC(=O)NC2(C(=O)NCCn3cc(C45CC(C(=O)Nc6nnc(S(N)(=O)=O)s6)(C4)C5)nn3)CCN(C(=O)CC[C@H](C(=O)O)N3CCN(CC(=O)O)CCN(CC(=O)O)CCN(CC(=O)O)CC3)CC2)CC1)(c1ccc(O)cc1)c1ccc(O)cc1.[Lu+3] [Compound 127.4] | < 1 nM | > 10 nM | –
15 | NS(=O)(=O)c1nnc(NC(=O)C23CC(c4cn(CCNC(=O)[C@@H]5CN(C(=O)CN6CCN(CC(=O)O)CCN(CC(=O)O)CCN(CC(=O)O)CC6)CCN5C(=O)CNC(=O)C5(C(=O)O)CCN(C(=O)Cc6ccc7cn[nH]c7c6)CC5)nn4)(C2)C3)s1.[Lu+3] [Compound 112.1] | 2.5 to 10 nM | > 10 nM | –
16 | CC(CCC(=O)N[C@@H](CC(=O)N[C@@H](CC(=O)NC1(CCCCn2cc(CCCCC(=O)Nc3nnc(S(N)(=O)=O)s3)nn2)CCN(C(=O)OCCOCCNC(=O)CN2CCN(CC(=O)O)CCN(CC(=O)O)CCN(CC(=O)O)CC2)CC1)C(=O)O)C(=O)O)(c1ccc(O)cc1)c1ccc(O)cc1.[Lu+3] [Compound 116.1] | 1 to 2.5 nM | 2.5 to 10 nM | –
17 | CC(CCC(=O)N[C@@H](CC(=O)N[C@@H](CC(=O)N1CCN(C(=O)CN2CCN(CC(=O)O)CCN(CC(=O)O)CCN(CC(=O)O)CC2)C[C@H]1C(=O)NCCn1cc(C23CC(C(=O)Nc4nnc(S(N)(=O)=O)s4)(C2)C3)nn1)C(=O)O)C(=O)O)(c1ccc(O)cc1)c1ccc(O)cc1.[Lu+3] [Compound 107.38] | < 1 nM | > 10 nM | –
18 | NS(=O)(=O)c1nnc(NC(=O)C23CC(c4cn(CCNC(=O)[C@@H]5CN(C(=O)CN6CCN(CC(=O)O)CCN(CC(=O)O)CCN(CC(=O)O)CC6)CCN5C(=O)C[C@H](Nc5ncc(C(=O)NCCc6ccc(C7CC7)cc6)cn5)C(=O)O)nn4)(C2)C3)s1.[Lu+3] [Compound 111.11] | 1 to 2.5 nM | > 10 nM | –
19 | CN1CCN(C(=O)CCCC(C)(c2ccc(O)cc2)c2ccc(O)cc2)[C@H](C(=O)N[C@@H](CC(=O)N2CCN(C(=O)CN3CCN(CC(=O)O)CCN(CC(=O)O)CCN(CC(=O)O)CC3)C[C@@H]2C(=O)NCCn2cc(C34CC(C(=O)Nc5nnc(S(N)(=O)=O)s5)(C3)C4)nn2)C(=O)O)C1.[Lu+3] [Compound 107.25] | < 1 nM | > 10 nM | –
20 | CC(CC(=O)N[C@@H](CC(=O)N[C@@H](CC(=O)N[C@@H](CCCCn1cc(C23CCC(C(=O)Nc4nnc(S(N)(=O)=O)s4)(CC2)C3)nn1)C(=O)NCCOCCOCCNC(=O)CN1CCN(CC(=O)O)CCN(CC(=O)O)CCN(CC(=O)O)CC1)C(=O)O)C(=O)O)(c1ccc(O)cc1)c1ccc(O)cc1.[Lu+3] [Compound 100.17] | < 1 nM | < 1 nM | –
21 | NS(=O)(=O)c1nnc(NC(=O)C23CCC(c4cn(CCNC(=O)[C@@H]5CN(C(=O)CN6CCN(CC(=O)O)CCN(CC(=O)O)CCN(CC(=O)O)CC6)CCN5C(=O)CC[C@H](NC(=O)C[C@H](NC(=O)Cc5[nH]nc6ccc(O)cc56)C(=O)O)C(=O)O)nn4)(CC2)CC3)s1.[Lu+3] [Compound 109.41] | < 1 nM | < 1 nM | –
22 | CC(CCCC(=O)N1CCC(C(N)=O)(C(=O)NCC(=O)N2CCN(C(=O)CN3CCN(CC(=O)O)CCN(CC(=O)O)CCN(CC(=O)O)CC3)C[C@H]2C(=O)NCCn2nnc(C34CC(C(=O)Nc5nnc(S(N)(=O)=O)s5)(C3)C4)c2C(=O)O)CC1)(c1ccc(O)cc1)c1ccc(O)cc1.[Lu+3] [Compound 107.58] | < 1 nM | > 10 nM | –
23 | CC(C)c1ccc(C(=O)N[C@@H](CC(=O)N[C@@H](CC(=O)N2CCN(C(=O)CN3CCN(CC(=O)O)CCN(CC(=O)O)CCN(CC(=O)O)CC3)C[C@H]2C(=O)NCCn2cc(C34CC(C(=O)Nc5nnc(S(N)(=O)=O)s5)(C3)C4)nn2)C(=O)O)C(=O)O)cc1.[Lu+3] [Compound 109.39] | 1 to 2.5 nM | 2.5 to 10 nM | –
